PubChem BioAssay AID1996
≈ marks a conversion by molar mass, not a printed value.

Settings: buffer; pH 7.4; 200.0 µM
In the case of `CC1CC1C(=O)OCC(=O)N(C)CC(=O)Nc1ccc(F)cc1` (configuration not stated), the solubility kinetic is reported as greater than 48.4 µg/mL. In the case of `Cc1ccnc(N2CCC(C(=O)Nc3ccc4c(c3)OCCO4)CC2)n1`, the solubility kinetic is reported as 13.6 µg/mL (≈ 38.4 µM). In the case of `Cc1ccc(C(=O)OCC(=O)NC(=O)c2cccn2C)cc1[N+](=O)[O-]`, the solubility kinetic is reported as 1.3 µg/mL (≈ 3.76 µM). Work on `Cn1cnc2c(cnn2-c2ccccc2)c1=O` yielded a solubility kinetic greater than 33.9 µg/mL. With `CCNC(=S)N1CCn2cccc2C1c1cccnc1` (configuration not stated) the solubility kinetic was 41 µg/mL (≈ 143 µM). `CCCCOC(=O)c1ccc(NC(=O)C(=O)NCCN(CC)CC)cc1` showed a solubility kinetic of 44.3 µg/mL (≈ 122 µM). Compound `CCOC(=O)c1oc2ccc(Cl)cc2c1NC(C)=O` has a solubility kinetic of 4.8 µg/mL (≈ 17 µM). `CCNC(=S)N1CCC(Cc2ccccc2)CC1` gave a solubility kinetic of 35.4 µg/mL (≈ 135 µM). In the case of `COC(=O)CSc1[nH]c2ccccc2c1[N+](=O)[O-]`, the solubility kinetic is reported as greater than 39.9 µg/mL. `O=C(Cn1ccccc1=S)c1ccc(Cl)c(Cl)c1` gave a solubility kinetic of 6.3 µg/mL (≈ 21.1 µM). Work on `CCOc1ccc(/C=C2\SC(=S)N(CCC(=O)O)C2=O)cc1` yielded a solubility kinetic of 40.9 µg/mL (≈ 121 µM). `COc1cc(S(=O)(=O)NCCCn2ccnc2)ccc1Cl` gave a solubility kinetic greater than 49.5 µg/mL. `COCCCNc1nc(N)c([N+](=O)[O-])c(Nc2cc(OC)ccc2OC)n1` showed a solubility kinetic of less than 0.1 µg/mL. Work on `CCOc1ccccc1NC(=O)N1CCCN(c2ncccc2C#N)CC1` yielded a solubility kinetic of 45.7 µg/mL (≈ 125 µM). Work on `N#Cc1ccc(OCC(O)CS(=O)(=O)c2ccccc2)cc1` (configuration not stated) yielded a solubility kinetic of 46.6 µg/mL (≈ 147 µM). `O=C(CSc1nc2ccccc2c(=O)n1CCCN1CCOCC1)NCCc1ccccc1` gave a solubility kinetic of 64.3 µg/mL (≈ 138 µM). `O=C(/C=C/c1ccc(F)cc1)c1ccc(N2CCOCC2)cc1` showed a solubility kinetic of 2.3 µg/mL (≈ 7.39 µM). `Nc1ccc(Cl)c(S(=O)(=O)Nc2ccccc2Cl)c1` gave a solubility kinetic greater than 47.6 µg/mL. For `NC(=O)COC(=O)c1cccnc1Nc1ccccc1F`, the solubility kinetic was 36.1 µg/mL (≈ 125 µM). Compound `Cc1cc(OCC(=O)NCCN2CCOCC2)cc(C)c1Cl` has a solubility kinetic greater than 49 µg/mL. For `CCNCCNc1ccc([N+](=O)[O-])c2cccnc12`, the solubility kinetic was 36.4 µg/mL (≈ 140 µM). In the case of `O=C(CN1C(=O)C(=O)c2ccccc21)c1ccc(Cl)cc1`, the solubility kinetic is reported as 1.9 µg/mL (≈ 6.34 µM). Compound `Cc1[nH]c2ccccc2c1SCC(=O)N1CCCCC1` has a solubility kinetic of 40.4 µg/mL (≈ 140 µM). Work on `CC(=O)N(CCc1cccc(C)c1)Cc1cc2ccc(C)cc2[nH]c1=O` yielded a solubility kinetic of 5.1 µg/mL (≈ 14.6 µM). `CN(C)c1ccc(C=NCCc2ccc(S(N)(=O)=O)cc2)cc1` showed a solubility kinetic of 37.1 µg/mL (≈ 112 µM). With `CN1CCN(C(=O)CNC(=O)C23CC4CC(CC(C4)C2)C3)CC1` the solubility kinetic was greater than 47.9 µg/mL. Compound `CCc1noc(C)c1C(=O)Nc1cccc2ncccc12` has a solubility kinetic greater than 42.2 µg/mL. With `CC1CN(C)C(C)C/C1=N/Oc1ccccc1[N+](=O)[O-].Cl` (configuration not stated) the solubility kinetic was 46.2 µg/mL. Work on `CCCOc1ccccc1Cn1c(=O)oc2ccccc21` yielded a solubility kinetic of 3.9 µg/mL (≈ 13.8 µM). With `O=S(=O)(Nc1ncccn1)c1ccc(Cl)cc1` the solubility kinetic was 40.1 µg/mL (≈ 149 µM). `OCCN(CCO)c1ccc2ccccc2c1` gave a solubility kinetic greater than 34.7 µg/mL. In the case of `CN(C)c1cccc(C(=O)OCC(=O)N2CCc3ccccc3C2)c1`, the solubility kinetic is reported as 27.9 µg/mL (≈ 82.4 µM). Work on `O=[N+]([O-])c1cccc(-c2ncc3ccccn23)c1` yielded a solubility kinetic of 19.1 µg/mL (≈ 79.8 µM). For `CC(N=Cc1c(O)c2ccccc2oc1=O)C(=O)O` (configuration not stated), the solubility kinetic was greater than 39.2 µg/mL. `COc1ccc(/C(N)=N/OC(=O)C2CCCCC2)cc1` showed a solubility kinetic of 20.6 µg/mL (≈ 74.5 µM). Work on `C=CCC1(Nc2ccccc2)CC(C)N(C)CC1C.O=C(O)C(=O)O` (configuration not stated) yielded a solubility kinetic greater than 52.3 µg/mL. Compound `O=C(c1cccc(F)c1)N1CCC(c2nc3ccccc3s2)CC1` has a solubility kinetic greater than 51.1 µg/mL. With `O=C1CSC(c2ccccn2)N1c1ccccc1F` (configuration not stated) the solubility kinetic was 40.6 µg/mL (≈ 148 µM). `NC(=O)c1ccccc1NC(=O)Cc1cccs1` showed a solubility kinetic of 38.3 µg/mL (≈ 147 µM). For `CCOc1ccc(NC(=S)NCc2ccc3c(c2)OCO3)cc1`, the solubility kinetic was 17.1 µg/mL (≈ 51.8 µM). Compound `C=CCn1c(SCC#N)nc2sc(CC)cc2c1=O` has a solubility kinetic of 7 µg/mL (≈ 24 µM). Compound `COC(=O)c1cc(C)sc1NC(=O)CSc1ncccn1` has a solubility kinetic of 44 µg/mL (≈ 136 µM). For `O=C(NC(=S)NC1CCCCC1)c1ccccc1`, the solubility kinetic was 8.5 µg/mL (≈ 32.4 µM). Compound `O=C(O)Cc1c(C(=O)O)[nH]c2ccc(C(=O)O)cc12` has a solubility kinetic greater than 39.5 µg/mL. Work on `Cc1ccc(NS(=O)(=O)N2CCOCC2)cc1` yielded a solubility kinetic greater than 38.4 µg/mL. With `CC(C)(C)c1ccc(Oc2ncccc2NC(=O)c2cccs2)cc1` the solubility kinetic was less than 0.4 µg/mL. `CCOc1ccccc1NC(=O)Cn1c(=O)oc2ccccc21` gave a solubility kinetic of 25.2 µg/mL (≈ 80.7 µM). With `Cc1nc(N)c(C#N)c(-c2ccc3c(c2)OCO3)c1C` the solubility kinetic was 0.5 µg/mL (≈ 1.87 µM). For `Fc1ccc(Nc2nc(-c3ccncc3)cs2)cc1`, the solubility kinetic was 0.8 µg/mL (≈ 2.95 µM). In the case of `CCNC(=O)C(=O)c1c(-c2ccccc2)[nH]c2ccccc12`, the solubility kinetic is reported as greater than 43.9 µg/mL. In the case of `Cc1csc2c(NC3CCN(Cc4ccccc4)CC3)ncnc12`, the solubility kinetic is reported as 41.5 µg/mL (≈ 123 µM). `CSc1nsc(SCC(=O)Nc2ccc(F)cc2F)n1` gave a solubility kinetic greater than 50 µg/mL. Compound `O=C(Nc1ccc(-n2cccc2)cc1)C1CC1` has a solubility kinetic of 6.4 µg/mL (≈ 28.3 µM). For `COc1ccc(NC(=O)C2C3CC/C=C\CCC32)cc1` (configuration not stated), the solubility kinetic was less than 0.6 µg/mL. `O=C(COC(=O)/C=C/c1ccc(F)cc1)Nc1ccc(S(=O)(=O)N2CCOCC2)cc1` showed a solubility kinetic of 6.1 µg/mL (≈ 13.6 µM). In the case of `CCn1c(Cc2cccs2)nnc1SCC(=O)NC1CC1`, the solubility kinetic is reported as greater than 48.4 µg/mL. Compound `CCN(CC(=O)NC1CCS(=O)(=O)C1)S(=O)(=O)c1ccccc1Cl` (configuration not stated) has a solubility kinetic greater than 59.2 µg/mL. `CCCn1c(=S)[nH]c2sc3c(c2c1=O)CCCC3` gave a solubility kinetic of 1.4 µg/mL (≈ 4.99 µM). In the case of `CCOC(=O)c1cc(NC(=O)N(C)C2CCCCC2)c(C)nc1C`, the solubility kinetic is reported as greater than 50 µg/mL. With `CN(C)/C=C1\Cc2ccccc2C1=O` the solubility kinetic was greater than 28.1 µg/mL. For `CCOc1ccc(CCNC(=O)CCC(=O)c2cccs2)cc1OCC`, the solubility kinetic was greater than 56.3 µg/mL. In the case of `Cc1ccc(C(=O)NCCCN2CCOCC2)cc1Cl`, the solubility kinetic is reported as 42.5 µg/mL (≈ 143 µM). Work on `COc1ccccc1NS(=O)(=O)c1ccc(C(=O)NCc2ccco2)cc1` yielded a solubility kinetic of 53 µg/mL (≈ 137 µM). For `Cc1cccc(-c2noc(CNC(=O)COc3ccccc3C)n2)c1`, the solubility kinetic was 1.2 µg/mL (≈ 3.56 µM). Work on `CSc1ncc(C(=O)Nc2ccc(Br)cn2)c(C)n1` yielded a solubility kinetic of 47 µg/mL (≈ 139 µM). For `CC1CCCC(C)N1C(=O)c1cc(-c2ccco2)on1` (configuration not stated), the solubility kinetic was greater than 41.1 µg/mL. `O=[N+]([O-])c1ccc(NC(=S)N2CCc3ccccc32)cc1` gave a solubility kinetic of 3.9 µg/mL (≈ 13 µM). Work on `O=C(CN1c2cccc3cccc(c23)S1(=O)=O)N1CCCCC1` yielded a solubility kinetic greater than 49.6 µg/mL. With `Cc1ccc(NC(=O)C2CCCN(c3nccc(C)n3)C2)c(C)c1` (configuration not stated) the solubility kinetic was 2.2 µg/mL (≈ 6.78 µM). Compound `Cc1cccc(OCC2Cn3c(nc4c3c(=O)[nH]c(=O)n4C)O2)c1` (configuration not stated) has a solubility kinetic of 9 µg/mL (≈ 27.4 µM). Work on `CCCCc1nc2cc(C(=O)N3CCCC3)ccc2o1` yielded a solubility kinetic greater than 40.9 µg/mL. Work on `Nc1c(C(=O)OCC(=O)NCc2ccccc2)[nH]c(=O)[nH]c1=O` yielded a solubility kinetic of 28.9 µg/mL (≈ 90.8 µM). Compound `Fc1ccc(-c2csc(-c3ccccn3)n2)cc1F` has a solubility kinetic of less than 0.3 µg/mL. With `C=CCn1c(NCc2ccco2)nc2ccccc21` the solubility kinetic was greater than 38 µg/mL. `Cc1ccc(CNC(=O)Nc2ccccc2)c(C)c1` gave a solubility kinetic of 0.7 µg/mL (≈ 2.75 µM). `CC(NC(=O)c1ccc(S(=O)(=O)Nc2ccccc2Cl)cc1)c1ccncc1` (configuration not stated) gave a solubility kinetic greater than 62.4 µg/mL. With `Cc1ccc(OCCCn2ccnc2)c(Br)c1` the solubility kinetic was 30.8 µg/mL (≈ 104 µM). Compound `CC(=O)CC(c1ccccc1)S(=O)(=O)c1ccc([N+](=O)[O-])cc1` (configuration not stated) has a solubility kinetic greater than 50 µg/mL. Work on `FC(F)(F)c1cc(NC2CCCCC2)ccn1` yielded a solubility kinetic of 28 µg/mL (≈ 115 µM). `Cc1cc(NC(=O)COC(=O)C2=COCCO2)c([N+](=O)[O-])cc1C` gave a solubility kinetic of 3.7 µg/mL (≈ 11 µM). Work on `O=C(O)CCC(=O)Nc1nc2nccc(-c3ccccc3)n2n1` yielded a solubility kinetic greater than 46.7 µg/mL. For `CC(=O)c1ccc(OCCCOc2cccc3cccnc23)cc1`, the solubility kinetic was 12.2 µg/mL (≈ 38 µM). Work on `Cl.O=C(O)Cc1cnc[nH]1` yielded a solubility kinetic greater than 24.4 µg/mL. For `Cc1cccnc1NC(=O)CCn1c(=O)oc2ccccc21`, the solubility kinetic was greater than 44.6 µg/mL. `Nc1ncccc1OCc1ccc(Cl)c(Cl)c1` showed a solubility kinetic of 29.7 µg/mL (≈ 110 µM). With `CC(=O)NCc1ccc(-c2csc(NC(=O)CCc3nc4ccccc4c(=O)[nH]3)n2)s1` the solubility kinetic was 7.3 µg/mL (≈ 16.1 µM). `Cc1cc(C(=O)NCC(=O)Nc2ccc(F)c(F)c2)c(C)o1` gave a solubility kinetic of 11.3 µg/mL (≈ 36.7 µM).
